Publication PMC5093207, “Pre-clinical Evaluation of a Cyanine-Based SPECT Probe for Multimodal Tumor Necrosis Imaging” (Molecular Imaging and Biology, 2016)

Tests used:
[1] = Radioactivity remaining in the whole mouse body after injection (clearance); assay type: in vivo; conditions: for total injected dose retained in the body: whole mouse body
Experimental: (§1) To study the specificity of the radiolabeled HQ4-DTPA versus radiolabeled DTPA in vivo, 10 μg [^111In]DTPA-HQ4 (=10 nmol per mouse) or 10 μg [^111In]DTPA was injected i.v. into mice bearing 4T1-luc2 tumors (n = 3 and 4, respectively). The total injected dose (ID) in each mouse was determined in a dose-calibrator (VDC101, Veenstra Instruments, Joure, the Netherlands).
Supplementary Figure 4: Biodistribution of [111In]DTPA. a) Biodistribution of the free chelate [111In]DTPA in 4T1 tumor bearing mice. 24h after probe injection (10 µg, 30-35 MBq), mice (n=4) were sacrificed and the organs, body fluids and tumors were dissected, weighted and measured for radioactivity in a gamma counter. At each time point, the amount of radioactivity in each organ and tumor is expressed as percentage of the injected dose divided by the weight (%ID/w). b) Total amount of remaining [111In]DTPA-HQ4 and [111In]DTPA in the whole mouse body (% of ID) at the indicated time points 6 to 72h after probe injection.
(§2) (1 picture or pasted object on this page, not shown here)

4T1 tumor bearing mice = test: Biodistribution (gamma counting of organs) in 4T1 tumor bearing mice, model of spontaneous tumor necrosis; assay type: in vivo, mouse; conditions: 24 h after i.v. injection, 10 μg, 30-35 MBq
Experimental: Approximately 1 × 10^5 4T1-luc2 cells, suspended in 15 μl PBS, were implanted bilateral and subcutaneously onto the upper back of nude mice. Tumors were grown until they reached a size of 6–7 mm in diameter which developed roughly after 1.5–2 weeks of tumor implantation.
as §1
After the last imaging time point, mice were sacrificed and several tissues were excised, weighed, and counted for radioactivity (Wizard2 2470 automatic gamma scintillation counter, Perkin Elmer, USA) to determine the percentage of the injected dose per gram (%ID/g). The %ID/g was calculated as follows: (((MBq measured in tissue/injected dose) × 100 %) / weight of tissue).
Fig. 3 Optical imaging, SPECT, and biodistribution of [^111In]DTPA-HQ4 in 4T1 breast tumor bearing mice. a Whole body FLI (coronal view) obtained 6–72 h after tail vein injection of [^111In]DTPA-HQ4 (10 nmol, 30–35 MBq). […] Six, 24, 48, and 72 h after probe injection, mice (n = 3 per time point) were sacrificed and the organs, body fluids, and tumors were dissected, weighed, and measured for radioactivity in a gamma counter. At each time point, the amount of radioactivity in the organs is expressed as percentage of the injected dose divided by […] (%ID/w). d TUNEL-stained histological section of a representative 4T1 mouse breast tumor showing a large area of necrosis (brown).
Supplementary Figure 4: Biodistribution of [111In]DTPA. a) Biodistribution of the free chelate [111In]DTPA in 4T1 tumor bearing mice. 24h after probe injection (10 µg, 30-35 MBq), mice (n=4) were sacrificed and the organs, body fluids and tumors were dissected, weighted and measured for radioactivity in a gamma counter. […]

4T1-luc2 cells [2] = test: Dry ice dead cell assay (cryo-induced cell death), fluorescence and radioactivity read-out; assay type: cell-based, mouse; conditions: 100 nM, 15 min incubation, 4T1 cells; for accumulation in the dead cells area by radioactivity (RA) measurement: phosphor imaging
Experimental: In vitro, cell death was studied using a cryo-induced cell death assay as previously described. In short, 4T1-luc2 cells were seeded onto 24-well tissue culture plates (Sigma-Aldrich) and grown until confluent. After discarding the medium, a bar of dry ice 3–5 mm in diameter was applied to the underside of the culture well for 20 s. Subsequently, the cells were incubated in the dark for 15 min at RT with HQ4 at a concentration of 100 nM. After incubation, the samples were gently washed with phosphate-buffered saline (PBS) and subsequently scanned for fluorescence using the Odyssey Infrared Imager 9120 (LI-COR) and for radioactivity via phosphor imaging on the Typhoon 9410 imager (GE Healthcare).
Fig. 2 In vitro necrosis avid properties of [^111In]DTPA-HQ4 by fluorescence and radioactivity measurements. a Necrotic cell death in confluent monolayers of 4T1 mouse breast cancer cells was induced by applying dry ice to the underside of the culture well. Cells were subsequently incubated for 15 min with one of the following: HQ4, HQ4-DTPA, [^111In]DTPA-HQ4, [^111In]DTPA, or ^111In-Cl3 (100 nM, 10 μg). After subsequent washing with PBS, cells were imaged either for fluorescence (FLI, upper panel) or for radioactivity (RA, lower panel). NL = not labeled. b Calculated signal-to-background (S/B) ratio (FLI and RA) of the different compounds obtained from the dry ice assay. The S/B ratio was defined as the signal intensity obtained from the area of dead cells in the center of the well divided by the signal intensity obtained from an area of living cells of the same size in the periphery.

4T1-luc2 cells [3] = test: In vitro MTS viability assay; assay type: cell-based; conditions: Mus musculus, 24 h, 4T1 cells, read-out: IC50 of induced cell death
Experimental: 4T1-luc2 cells were plated in a 96-well plate (Costar) in 100 μl medium at a density of 10,000 cells per well and left over night to adhere. The next day, the medium was replaced with medium containing the experimental compounds: HQ4, HQ4-DTPA, HQ5, and Gambogic acid (GA), three wells per condition. After 24 h, cell viability was measured using a nonradioactive colorimetric MTS viability assay (Promega Benelux) according to the manufacturer’s protocol. Optical absorption was measured at 490 nm with a Versamax absorbance microplate reader (Molecular Devices).
Supplementary Figure 3: MTS cell viability assay of various agents.
Confluent cultures of 4T1 cells were incubated for 24hr with various concentrations HQ4, HQ4-DTPA, HQ5 or the natural anti-cancer compound Gambogic Acid (GA). Relative cell viability (%) was expressed as a percentage relative to the untreated control.
GA induced cell death with an IC50 of around 6µM.
as §2

Structure (SMILES): O=C([O-])CN(CCN(CC(=O)[O-])CC(=O)[O-])CCN(CC(=O)[O-])CC(=O)[O-].[111In+3].[H+].[H+] [[^111In]DTPA]
- total injected dose retained in the body ([1]; 24 h after injection): 10%
- total injected dose retained in the body ([1]; 48 h after injection): 8%
- clearance rate relative to [111In]DTPA-HQ4 ([1]; fold faster than [111In]DTPA-HQ4): about 8 fold
- radioactivity in kidneys (4T1 tumor bearing mice): 5.0 %ID/w
- radioactivity in liver (4T1 tumor bearing mice): 0.6 %ID/w
- radioactivity in tumors (4T1 tumor bearing mice): 0.5 %ID/w
- accumulation in the dead cells area by radioactivity (RA) measurement (4T1-luc2 cells [2]): neither [^111In]DTPA nor free ^111In-Cl3 accumulated in the dead cells area

Structure (SMILES): CC(C)=CCC[C@]1(C)C=Cc2c(O)c3c(c(CC=C(C)C)c2O1)O[C@]12C(=C[C@@H]4C[C@H]1C(C)(C)O[C@@]2(C/C=C(/C)C(=O)O)C4=O)C3=O [GA, Gambogic acid]
- IC50 (4T1-luc2 cells [3]): ~6 µM

Structure (SMILES): [Cl][In]([Cl])[Cl] [^111In-Cl3, ^111indium-chloride]
- accumulation in the dead cells area by radioactivity (RA) measurement (4T1-luc2 cells [2]): neither [^111In]DTPA nor free ^111In-Cl3 accumulated in the dead cells area

Structure (SMILES): CCCNS(=O)(=O)c1cccc2c3c(ccc12)[N+](CCCCCC(=O)NCCOCCOCCNC(=O)CN(CCN(CCN(CC(=O)O)CC(=O)O)CC(=O)O)CC(=O)O)=C(/C=C/C=C/C=C1/N(CCCCS(=O)(=O)[O-])c2ccc4ccccc4c2C1(C)C)C3(C)C [HQ4-DTPA]
- accumulation in the area of dead cells by fluorescence imaging (4T1-luc2 cells [2]; FLI): strongly accumulated in the area of dead cells
